# Test results: patent US9085559B2, “Triazine-aryl-bis-indoles and process for preparation thereof” (COUNCIL OF SCIENTIFIC & INDUSTRIAL RESEARCH, priority 2010, dated 2015)
# System: not listed separately
# Test: Pharmacokinetic study, oral and i.v. route
# Type: in vivo, swiss mice
# Conditions: mouse, in vivo
# Description: FIG. 6. Pharmacokinetics of IICT-TA67 through oral route. FIG. 7. Pharmacokinetics of IICT-TA67 through intravenous (i.v) route in mice. IICT-TA67 (20 mg/kg) was administered orally (or 10 mg/kg by i.v. route) as a fine suspension in 1% Gum acacia. Blood samples were drawn from retro-orbital plexus at designated times in pre-labeled heparinised tubes and centrifuged (3500 rpm×10 minutes) to obtain the plasma. Blood samples were collected at 0, 5, 15 and 30 min, and 1, 2, 4, 6, 8, 16 and 24 hrs post-administration after oral/iv route. HPLC determinations were done on Shimadzu chromatograph (Model: LC-10 Atvp equipped with a diode array detector). The Molecule ICT-TA67 was determined at 276 nm using RP-18 column (5 μm×25 cm). Mobile phase consisted of acetonitrile: water (55:45) with a flow rate of 1.0 ml/min.
# Animals. Healthy swiss mice of both the sexes (25-30) were used. The animals were kept (3/cage) under controlled conditions (temp 26±2° C.; relative humidity 50±5%; 12 h light/dark cycle) and maintained on pelleted rodent diet (Ashirwad Industries Ltd. Chandigarh, India). Water was provided ad libitum. Institutional Animal Ethics committee approved the animal experiments. Animals were fasted for 16 hours before use.
# Step 1: Dosing: IICT-TA67 (20 mg/kg) was administered orally (or 10 mg/kg by i.v.route) as a fine suspension in 1% Gum acacia. Blood samples were drawn from retro-orbital plexus at designated times in pre-labeled heparinised tubes and centrifuged (3500 rpm×10 minutes) to obtain the plasma. Blood samples were collected at 0, 5, 15 and 30 min, and 1, 2, 4, 6, 8, 16 and 24 hrs post-administration after oral/iv route.
# Step 2: HPLC determinations: Aliquots of plasma were mixed with acetonitrile (1:2), vortexed for two minutes (2500 rpm) and centrifuge at 5000 rpm for 10 min. The organic layer was collected and evaporated to dryness using solvent evaporator (Model: SPD 111V, Thermo Electron Corporation, MA). The dried samples were reconstituted in mobile phase for HPLC analysis. In a similar manner samples were also prepared from aliquots of plasma collected from untreated animals which were spiked with molecule 67 (0.25 μg-10 μg/ml). […] Reproducibility of the method was defined by both intra-, and inter-day variance. The retention time of Mol. 67 was 10.688 min, at which no other interfering peak was observed. The lower limit of detection (LOD) was 11 ng/ml; limit of quantitation (LOQ) was 32 ng/ml; recovery was 90±2%.
# HPLC determinations were done on Shimadzu chromatograph (Model: LC-10 Atvp equipped with a diode array detector). Molecule 67 was determined at 276 nm using RP-18 column (5 μm×25 cm). Mobile phase consisted of acetonitrile: water (55:45) with a flow rate of 1.0 ml/min.
# Step 3: Calculating Bioavailability indices: A concentration-time curve for Molecule 67 was established and pharmacokinetic parameters AUC, Cmax, and tmax were determined by a non-compartmental analysis using TOPFIT software package. Absolute bioavailability was determined using the following formula: AUCoral×doseiv/AUCiv×Doseoral.
row,SMILES,bioavailability and pharmacokinetics
1,"COc1ccc(C(c2[nH]c3ccccc3c2CC(=O)O)c2[nH]c3ccccc3c2CC(=O)O)cc1Oc1nc(Nc2ccccc2)nc(Nc2ccccc2)n1 [Compound 8, 2,2′-[2,2′-3-(4,6-bis-anilino)-1,3,5-triazin-2-yl-oxy-4-methoxyphenyl]-methylene-bis-(1H-indole-3,3-diyl)-diacetic acid]",potentially bioavailable with good pharmacokinetics

# System: PDE-4
# Test: Phosphodiesterase 4 assay ([3H]cAMP SPA), enzyme preparation from rat heart
# Type: biochemical
# Conditions: PDE-4 activity, dose 10 μg/ml
# Description: FIG. 2. […] To examine whether IICT-TA67 inhibits PDE-4 activity in vitro, enzyme preparations were incubated in the absence or presence of different concentrations (1-20 μg/ml) of IICT-TA67 and breakdown of cAMP was monitored by β counter.
# Table 1. Measurement of phosphodiesterase (PDE)-4 activity by compounds.
# Heart was excised from anesthetized rat and transfer into normal saline solution. […] The homogenate was centrifuged at 500×g for 5 minute at 4° C. Then sup was taken for further centrifuged at 40,000×g for 30 minute (ultra centrifugation). After centrifugation supernatant was collected for phosphodiesterase assay. Protein concentration was estimated and for each assay, 2.5 μg protein (PDE enzyme preparation) was used.
# Phosphodiesterase 4 assay: Phosphodiesterase 4 assay was conducted with [^3H] cAMP SPA enzyme assay (GE Amersham, UK) using 2.5 μg enzyme preparation for each well. Into each well 60 μl water, 10 μl assay buffer supplied with the kit, 10 μl compound (inhibitor), 10 μl PDE enzyme or homogenizing buffer (blank) and 10 μl radiolabel led cAMP ([^3H]cAMP, GE Amersham, UK) were added. To check activity of the enzyme without inhibitor 10 μl DMSO was added in place of inhibitor to a separate well. The reaction mixtures were incubated for 30 mi at 30° C. The reaction was stopped by adding 50 μl SPA bead supplied with the kit. It was then mixed well and allowed to stand at room temperature for 20 min. Breakdown of cAMP in each tube was monitored by β counter. The reading in each tube was obtained in counts per minute (CPM). The reading of the blank tube (without enzyme) was subtracted from each tube to normalize the counts. The enzyme activity was calculated by considering the CPM reading without any inhibitor (compound) as 100.
row,Inhibition % [%],SMILES
1,16,"COc1cc(C(c2cc3ccccc3[nH]2)c2cc3ccccc3[nH]2)ccc1Oc1nc(NC2CC2)nc(NC2CC2)n1 [Compound 1, 2,2′-[2,2′-4-(4,6-bis-cyclopropylamino)-1,3,5-triazin-2-yl-oxy-3-methoxyphenyl]-methylene-bis-1H-indole]"
2,29,"COc1cc(C=O)ccc1Oc1nc(NC2CC2)nc(NC2CC2)n1 [Compound 12, 4-[4,6-Bis-cyclopropylamino-1,3,5-triazin-2-yl-oxy]-3-methoxy benzaldehyde]"
3,44,"Clc1nc(NC2CC2)nc(NC2CC2)n1 [Compound 10, 6-Chloro-N^2,N^4-dicyclopropyl-1,3,5-triazine-2,4-diamine]"
4,53,"Clc1nc(Nc2ccccc2)nc(Nc2ccccc2)n1 [Compound 11, 6-Chloro-N^2,N^4-diphenyl-1,3,5-triazine-2,4-diamine]"
5,45,"COc1ccc(C(c2cc3ccccc3[nH]2)c2cc3ccccc3[nH]2)cc1Oc1nc(Nc2ccccc2)nc(Nc2ccccc2)n1 [Compound 6, 2,2′-[2,2′-3-(4,6-bis-anilino)-1,3,5-triazin-2-yl-oxy-4-methoxyphenyl]-methylene-bis-1H-indole]"
6,34,"COc1ccc(C(c2cc3ccccc3[nH]2)c2cc3ccccc3[nH]2)cc1Oc1nc(NC2CC2)nc(NC2CC2)n1 [Compound 5, 2,2′-[2,2′-3-(4,6-bis-cyclopropylamino)-1,3,5-triazin-2-yl-oxy-4-methoxyphenyl]-methylene-bis-1H-indole]"
7,31,"COc1cc(C(c2[nH]c3ccccc3c2CC(=O)O)c2[nH]c3ccccc3c2CC(=O)O)ccc1Oc1nc(Nc2ccccc2)nc(Nc2ccccc2)n1 [Compound 4, 2,2′-[2,2′-4-(4,6-bis-anilino)-1,3,5-triazin-2-yl-oxy-3-methoxyphenyl]-methylene-bis-(1H-indole-3,3-diyl)-diacetic acid]"
8,69,"COc1ccc(C2CNC(=O)C2)cc1OC1CCCC1 (centres unmarked) [Rolipram, reference compound]"
9,42,"COc1cc(C(c2[nH]c3ccccc3c2CC(=O)O)c2[nH]c3ccccc3c2CC(=O)O)ccc1Oc1nc(NC2CC2)nc(NC2CC2)n1 [Compound 3, 2,2′-[2,2′-4-(4,6-bis-cyclopropylamino)-1,3,5-triazin-2-yl-oxy-3-methoxyphenyl]-methylene-bis-(1H-indole-3,3-diyl)-diacetic acid]"
10,34,"COc1cc(C(c2cc3ccccc3[nH]2)c2cc3ccccc3[nH]2)ccc1Oc1nc(Nc2ccccc2)nc(Nc2ccccc2)n1 [Compound 2, 2,2′-[2,2′-4-(4,6-bis-anilino)-1,3,5-triazin-2-yl-oxy-3-methoxyphenyl]-methylene-bis-1H-indole]"
11,30,"COc1cc(C=O)ccc1Oc1nc(Nc2ccccc2)nc(Nc2ccccc2)n1 [Compound 13, 4-[4,6-Bis-anilino-1,3,5-triazin-2-yl-oxy]-3-methoxy benzaldehyde]"

row,SMILES,Inhibition % [%]
1,"COc1ccc(C(c2[nH]c3ccccc3c2CC(=O)O)c2[nH]c3ccccc3c2CC(=O)O)cc1Oc1nc(Nc2ccccc2)nc(Nc2ccccc2)n1 [Compound 8, 2,2′-[2,2′-3-(4,6-bis-anilino)-1,3,5-triazin-2-yl-oxy-4-methoxyphenyl]-methylene-bis-(1H-indole-3,3-diyl)-diacetic acid]",73

# System: BALB/c 3T3 cell line
# Test: Balb/c 3T3 Neutral Red Uptake (NRU) cytotoxicity assay
# Type: cell-based
# Conditions: NRU cytotoxicity test (FIG. 8)
# Source text: FIG. 8. IICT-TA67 is not toxic. To evaluate the cytotoxicity of test chemical (IICT-TA67) BALB/c 3T3 cell line was used for Neutral Red Uptake (NRU) cytotoxicity test. The test result has been used to determine IC50 for IICT-TA67 and acute oral toxicity (LD50) in rodent was predicted.
# Basal cytotoxicity of IICT-TA67 has been performed to measure IC50 and thereafter predict in vivo acute oral LD50 values in rodent by using Halle's Registry of cytotoxicity (RC) prediction model: log (LD50)=0.435×log (IC50)+0.625 (Halle, 1998; Spielmann et al., 1999). Balb/c 3T3 Neutral Red Dye Uptake (NRU) cytotoxicity assay procedure was adopted (Liebsch & Spielmann 1995). In brief 3T3 cell were grown in 96 well microtitre plates and exposed to IICT-TA-67. After 48-hour incubation, the test material was removed and Neutral red (NR) solution was applied to the cells. The cells were incubated again, the excess NR solution was removed and finally NR was eluted from the cells. The NRU was determined by using a microtitre plate reader to measure the optical density at 540 nm of the eluted dye in 96 well plate. A calculation of cell viability expressed as NRU was made for each concentration of the test chemical by using the mean NRU of 6 replicate values per test concentration. The cell viability value was compared with the mean NRU of all vehicle control values and relative cell viability was then expressed as percent of untreated vehicle control. […] Although the percentage of viability is slightly more than 95% at 50 μg/ml of IICT-67, 30 μg/ml (% viability of cells is 98%)
row,SMILES,toxicity
1,"COc1ccc(C(c2[nH]c3ccccc3c2CC(=O)O)c2[nH]c3ccccc3c2CC(=O)O)cc1Oc1nc(Nc2ccccc2)nc(Nc2ccccc2)n1 [Compound 8, 2,2′-[2,2′-3-(4,6-bis-anilino)-1,3,5-triazin-2-yl-oxy-4-methoxyphenyl]-methylene-bis-(1H-indole-3,3-diyl)-diacetic acid]",potentially non toxic
